Source: ChEMBL document CHEMBL1201862, “PubChem BioAssay data set” (2004)
Several values for one entry are separate records, joined by “and”; a condition that tells them apart may be missing. Equal values may be shown once.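 Protocol summary: plate cells (96-well), add compound at 5 concentrations, incubate 48 h, interpolate endpoints linearly. Here, GI50 denotes the concentration required for 50% inhibition of growth.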 Activity calls are given as the source filed them. Rule as the data show it: active = GI50 up to about 1.1 µM and inactive = higher.

Columns and labels:
Assay in all cases: NCI-60 cell line screen, 48 h
[1] = system: SW-620
[2] = system: RPMI-8226
[3] = system: LOX IMVI
[4] = system: OVCAR-5
[5] = system: NCI/ADR-RES
[6] = system: HCT-116
[7] = system: HT-29
[8] = system: DU-145
[9] = system: IGROV-1
[10] = system: SNB-75
[11] = system: CAKI-1
[12] = system: PC-3
[13] = system: M14
[14] = system: T47D
[15] = system: ACHN
[16] = system: CCRF-CEM
[17] = system: TK-10
[18] = system: SK-MEL-5
[19] = system: A549
[20] = system: OVCAR-4
[21] = system: OVCAR-8
[22] = system: SR
[23] = system: BT-549
[24] = system: NCI-H460
[25] = system: HL-60
[26] = system: EKVX
[27] = system: SN12C
[28] = system: KM12
[29] = system: HOP-62
[30] = system: HCT-15
[31] = system: NCI-H226
[32] = system: SNB-19
[33] = system: OVCAR-3
[34] = system: NCI-H23
[35] = system: SF-295
[36] = system: MDA-MB-231
[37] = system: SK-MEL-28
[38] = system: SF-539
[39] = system: HOP-92
[40] = system: UO-31
[41] = system: MDA-N
[42] = system: UACC-257
[43] = system: 786-0
[44] = system: NCI-H522
[45] = system: MDA-MB-435
[46] = system: SK-OV-3
[47] = system: SK-MEL-2
[48] = system: MOLT-4
[49] = system: Hs-578T
[50] = system: K562
[51] = system: COLO 205
[52] = system: SF-268
[53] = system: A498
[54] = system: HCC 2998
[55] = system: MCF7
[56] = system: UACC-62
[57] = system: U-251
[58] = system: Malme-3M
[59] = system: RXF 393

COc1cc([C@H]2OC[C@H]3[C@@H]2CO[C@@H]3c2cc(OC)c3c(c2)OCO3)cc(OC)c1OC
GI50 [1]: > 100 µM (inactive)
GI50 [2]: 28 µM (inactive) and 35 µM (inactive)
GI50 [3]: 70.6 µM (inactive) and 96.8 µM (inactive)
GI50 [4]: > 100 µM (inactive)
GI50 [5]: 23.4 µM (inactive) and 33.3 µM (inactive)
GI50 [6]: 41.6 µM (inactive) and 70.3 µM (inactive)
GI50 [7]: 37.3 µM (inactive) and 54.6 µM (inactive)
GI50 [8]: 81.3 µM (inactive)
GI50 [9]: 92.3 µM (inactive) and 66.4 µM (inactive)
GI50 [10]: 46.6 µM (inactive) and 84.5 µM (inactive)
GI50 [11]: 52.7 µM (inactive) and 25 µM (inactive)
GI50 [12]: 46.1 µM (inactive) and 51.6 µM (inactive)
GI50 [13]: 65.3 µM (inactive)
GI50 [14]: 34.2 µM (inactive) and 37.9 µM (inactive)
GI50 [15]: 39.1 µM (inactive)
GI50 [16]: 45.9 µM (inactive) and > 10 µM (inactive)
GI50 [17]: > 100 µM (inactive)
GI50 [18]: 19.2 µM (inactive) and 18.6 µM (inactive)
GI50 [19]: 46 µM (inactive) and 55.2 µM (inactive)
GI50 [20]: 48.5 µM (inactive) and 43.7 µM (inactive)
GI50 [21]: 31.3 µM (inactive) and 49.3 µM (inactive)
GI50 [22]: 17.3 µM (inactive) and 42.1 µM (inactive)
GI50 [23]: 31.6 µM (inactive) and 52.1 µM (inactive)
GI50 [24]: 33.7 µM (inactive) and 33.9 µM (inactive)
GI50 [25]: 40 µM (inactive) and > 10 µM (inactive)
GI50 [26]: 39.4 µM (inactive) and 40.9 µM (inactive)
GI50 [27]: 96.8 µM (inactive)
GI50 [28]: 50.5 µM (inactive) and 95.1 µM (inactive)
GI50 [29]: 55.6 µM (inactive)
GI50 [30]: 34.4 µM and 39.8 µM
GI50 [31]: 43.5 µM (inactive) and 47.4 µM (inactive)
GI50 [32]: 53.6 µM (inactive) and 43.8 µM (inactive)
GI50 [33]: 87.1 µM (inactive)
GI50 [34]: 37.4 µM (inactive) and 63 µM (inactive)
GI50 [35]: 48.1 µM (inactive) and 47.9 µM (inactive)
GI50 [36]: > 100 µM (inactive) and 50.4 µM (inactive)
GI50 [37]: > 100 µM (inactive)
GI50 [38]: > 100 µM (inactive)
GI50 [39]: 46.9 µM (inactive) and 60.7 µM (inactive)
GI50 [40]: 44.6 µM (inactive) and 38.3 µM (inactive)
GI50 [41]: 65.2 µM (inactive)
GI50 [42]: 79.4 µM (inactive) and 50.2 µM (inactive)
GI50 [43]: > 100 µM (inactive)
GI50 [44]: 32.7 µM (inactive) and 20.7 µM (inactive)
GI50 [45]: 76 µM (inactive)
GI50 [46]: > 100 µM (inactive)
GI50 [47]: > 100 µM (inactive)
GI50 [48]: 12.9 µM (inactive) and > 10 µM (inactive)
GI50 [49]: 51.3 µM (inactive) and 59.3 µM (inactive)
GI50 [50]: 39.4 µM (inactive) and 73.3 µM (inactive)
GI50 [51]: 48.3 µM (inactive) and 42.5 µM (inactive)
GI50 [52]: 68.2 µM (inactive) and 59.2 µM (inactive)
GI50 [53]: > 100 µM (inactive)
GI50 [54]: 56 µM (inactive) and 27.9 µM (inactive)
GI50 [55]: 60.5 µM (inactive) and 50.5 µM (inactive)
GI50 [56]: 39.9 µM (inactive) and 67.3 µM (inactive)
GI50 [57]: 83 µM (inactive) and 57.9 µM (inactive)

COc1cc2c(cc1C1COc3cc4occc4cc3C1=O)OCO2 (stereo not drawn)
GI50 [1]: > 100 µM (inactive)
GI50 [2]: 2.67 µM (inactive)
GI50 [3]: > 100 µM (inactive)
GI50 [4]: > 100 µM (inactive)
GI50 [5]: 17.1 µM (inactive)
GI50 [6]: > 100 µM (inactive)
GI50 [7]: 41.2 µM (inactive)
GI50 [8]: > 100 µM (inactive)
GI50 [9]: 63 µM (inactive)
GI50 [10]: > 100 µM (inactive)
GI50 [11]: 67 µM (inactive)
GI50 [12]: > 100 µM (inactive)
GI50 [13]: > 100 µM (inactive)
GI50 [14]: > 100 µM (inactive)
GI50 [15]: > 100 µM (inactive)
GI50 [16]: > 100 µM (inactive)
GI50 [17]: 29.4 µM (inactive)
GI50 [18]: > 100 µM (inactive)
GI50 [19]: 7.11 µM (inactive)
GI50 [20]: 2.81 µM (inactive)
GI50 [21]: 21.1 µM (inactive)
GI50 [22]: 49.1 µM (inactive)
GI50 [23]: > 100 µM (inactive)
GI50 [26]: 87.3 µM (inactive)
GI50 [27]: > 100 µM (inactive)
GI50 [28]: > 100 µM (inactive)
GI50 [29]: 40.3 µM (inactive)
GI50 [30]: 35.9 µM
GI50 [31]: 25.7 µM (inactive)
GI50 [32]: 30.1 µM (inactive)
GI50 [33]: > 100 µM (inactive)
GI50 [34]: > 100 µM (inactive)
GI50 [35]: 53.8 µM (inactive)
GI50 [36]: > 100 µM (inactive)
GI50 [37]: 40.1 µM (inactive)
GI50 [38]: 35.6 µM (inactive)
GI50 [39]: 91 µM (inactive)
GI50 [40]: > 100 µM (inactive)
GI50 [41]: > 100 µM (inactive)
GI50 [42]: > 100 µM (inactive)
GI50 [43]: > 100 µM (inactive)
GI50 [44]: > 100 µM (inactive)
GI50 [45]: > 100 µM (inactive)
GI50 [46]: 34.4 µM (inactive)
GI50 [47]: > 100 µM (inactive)
GI50 [48]: 4.05 µM (inactive)
GI50 [49]: 28.1 µM (inactive)
GI50 [58]: 89.1 µM (inactive)
GI50 [51]: > 100 µM (inactive)
GI50 [52]: 55.1 µM (inactive)
GI50 [53]: 31.8 µM (inactive)
GI50 [54]: 98.6 µM (inactive)
GI50 [55]: 17.4 µM (inactive)
GI50 [56]: > 100 µM (inactive)
GI50 [59]: 36.3 µM (inactive)
GI50 [57]: 76 µM (inactive)
